# “Also recorded” adds a separate entry of the source.
# Legend:
# [1] = test system: Tac2-expressing neurons in the CeA; test: Gi-DREADD silencing of Tac2-expressing CeA neurons with CNO, fear conditioning and elevated plus maze; type: in vivo, mice
# Description: Tac2-Cre^− or Tac2-Cre^+ mice were infected with the hM4Di-mCherry AAV in the CeA. The Gi receptor was inserted only on the Tac2-Cre cells of Tac2-Cre+mice, CeM=centro-medial amygdala, CeL=centro-lateral amygdala. CNO was given systemically 30 minutes prior to fear conditioning to Tac2-Cre-/hM4Di-mCherry and Tac2 Cre+/hM4DimCherry. […] Tac2-Cre-/hM4DimCherry vs Tac2-Cre+/hM4Di-mCherry. Tac2-Cre-/hM4Di-mCherry and Tac2-Cre+/hM4Di-mCherry mice were retrained to a different acoustic tone (CS) without receiving CNO.
# To further understand the role of the Tac2 gene, the activity of neurons expressing this gene in the CeA were temporarily silenced during fear learning using designer receptors exclusively activated by designer drugs (DREADD) technology. The B6.129-Tac2tm1.1(cre) Qima/J (Tac2-cre) (Mar et al., Mol. Brain, 2012, 5, 3) mice were infected with a DREADD Gi-coupled receptor via the pAAV-hSyn-double floxed hM4D-mCherry virus (hM4Di-mCherry AAV). […] 14 days later, clozapine-N-oxide (CNO), which binds to the inserted receptor but otherwise is pharmacologically inert, was given systemically 30 minutes before FC in both groups, Tac2-Cre-/hM4Di-mCherry and Tac2-Cre+/hM4Di-mCherry. CNO had no effect on fear acquisition as shown by equivalent amount of freezing in both groups (FIG. 5A). […] Mice were then retrained with a different CS and a different context in the same FC apparatus, as in previous experiments but without dosing CNO.
# mice [2] = test: Auditory cued fear conditioning and fear expression test, systemic osanetant; type: in vivo; details: dosed from 30 min before FC up to 1 hour after training; for fear memory consolidation, freezing in the fear expression test: vs vehicle
# guinea-pigs = details: cited from earlier work
# [3] = test system: Pac1 receptor (Adcyap1r1); test: Adcyap1r1 (PAC1 receptor) mRNA levels in the amygdala after fear conditioning; type: in vivo, mice; details: intraperitoneally 30 minutes before fear conditioning, vs Veh-FC
# Description: The PACAP-PAC1R pathway is associated with PTSD, fear conditioning and stress.
# (§1) Recently, the PACAP-PAC1R pathway has been associated with PTSD in humans as well as in animal models. (See Stevens et al., 2014).
# mice [4] = test: Elevated plus maze, systemic osanetant 30 minutes before; type: in vivo; details: 30 minutes before elevated plus maze
# Description: (§2) Different cohorts of mice received systemic osanetant 30 minutes before open field, elevated plus maze or fear conditioning in the startle chamber.
# FIG. 6C time in open arms,
# FIG. 6D entries in open arms, and
# FIG. 6E time in closed arms in the elevated plus maze.
# (§3) The above studies indicate that osanetant would target the Nk3R in the amygdale in vivo. Osanetant given systemically, 30 minutes before open field, elevated plus maze and the conditioning chamber elicits no changes in anxiety-like behavior, locomotor activity or electric shock reactivity.
# Nk3R = molecular target: T1, Nk3R (Mus musculus, UniProt P47937); test: Amygdala cell culture incubated with osanetant, Nk3R mRNA levels; type: cell-based; details: incubation with 20 μg and 40 μg of osanetant, vs Veh
# T1 construct: endogenous in cells; host or cells: mouse amygdala cell culture (primary)
# T1 sequence (P47937 1-452): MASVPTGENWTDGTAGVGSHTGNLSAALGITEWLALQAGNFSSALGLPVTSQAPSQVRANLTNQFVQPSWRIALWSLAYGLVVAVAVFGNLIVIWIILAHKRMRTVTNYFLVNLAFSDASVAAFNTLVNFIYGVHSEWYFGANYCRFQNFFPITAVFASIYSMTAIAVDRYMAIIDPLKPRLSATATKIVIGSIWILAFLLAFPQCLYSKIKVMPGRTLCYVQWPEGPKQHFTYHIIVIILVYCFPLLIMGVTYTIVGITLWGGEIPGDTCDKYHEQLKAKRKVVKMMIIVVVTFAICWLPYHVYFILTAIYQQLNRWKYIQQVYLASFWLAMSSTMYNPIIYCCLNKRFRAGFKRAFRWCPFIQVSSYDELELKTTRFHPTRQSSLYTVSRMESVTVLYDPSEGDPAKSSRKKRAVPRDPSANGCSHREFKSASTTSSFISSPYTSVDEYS
# Description: Moreover, NkB peptide is also highly expressed in the CeA. […] The Nk3R antagonist osanetant has already been used in humans in clinical trials for schizophrenia.
# mice [5] = test: Shock reactivity in the startle chamber; type: in vivo; details: systemic, 30 minutes before testing in the startle chamber
# Description: as §2, §3
# mice [6] = test: Open field, systemic osanetant 30 minutes before; type: in vivo; details: 30 minutes before open field
# Description: as §2, §3
# mice [7] = test: Fear conditioning in mice with LV-Tac2 or LV-GFP infused in the central amygdala, systemic osanetant; type: in vivo; details: systemic immediately after FC, tested 24 hours later
# Description: The lentivirus GFP-FUGW induces GFP expression but not Neurokinin B (NkB) in Hek293 cells. […] Tac2-FUGW or GFP-FUGW were bilaterally infused in the central amygdala and mice were left undisturbed for 14 days.
# The lentiviruses GFP-FUGW and Tac2-FUGW causes no changes in fear conditioning. Osanetant or vehicle were given systemically immediately after fear acquisition.
# A viral vector was developed to overexpress the Tac2 gene in an inducible fashion within the brain, the lentivirus-Tac2 (LV-Tac2). […] The behavioral effects of Tac2 overexpression was examined in mice. […] Mice infected with the LVTac2 or LV-GFP received systemic osanetant or vehicle immediately after FC, and then fear expression was tested 24 hours later. Specific CeA-Tac2 overexpression elicited a significant enhancement of fear memory consolidation. […] Additionally, the enhanced fear memory consolidation caused by CeA-Tac2 overexpression was reversed by osanetant (Post-hoc, **P≤0.01 vs LV-Tac2-Osa and LV-GFP-Osa FIG. 4D).
# CeA-NK3R = molecular target: T2, CeA-NK3R (Mus musculus, UniProt P47937); test: Osanetant bilaterally injected into the central amygdala, cued-fear expression test; type: in vivo, mice; details: bilateral infusion in the CeA immediately after fear conditioning; vs vehicle
# T2 construct: from tissue; host or cells: central amygdala of living mice (in vivo infusion)
# T2 sequence (P47937 1-452): T1 sequence (P47937 1-452)
# Description: as §1
# IMO treated mice = test: Fear conditioning after immobilization to a wooden board (IMO), PTSD-like model; type: in vivo; details: systemic immediately after FC
# Description: Veh=vehicle; Osa=osanetant.
# Mice exposed for 2 hours to a severe one-time stressor, immobilization to a wooden board (IMO), present long-term PTSD-like symptoms: impaired fear extinction and spatial memory, and enhanced anxiety-like behaviors. Additionally, IMO in rats elicits alterations of the hypothalamic-pituitary-adrenal (HPA) axis which may be similar to the process initiating PTSD in humans.
compound,measurement,setting,value
"C[N+]1([O-])CCN(C2=Nc3cc(Cl)ccc3Nc3ccccc32)CC1 [CNO, clozapine-N-oxide]","anxiety-like behavior, elevated plus maze","[1]; CNO 30 minutes before, both Tac2-Cre groups",equivalent levels; also recorded: no effect
same,"fear acquisition, freezing","[1]; CNO systemically 30 minutes before FC, Tac2-Cre-/hM4Di-mCherry and Tac2-Cre+/hM4Di-mCherry",no effect; also recorded: did not affect freezing during fear acquisition
same,"fear expression, freezing 24 hrs later in the absence of CNO","[1]; Tac2-Cre+/hM4Di-mCherry vs Tac2-Cre-/hM4Di-mCherry, CNO 30 minutes before FC",less freezing; also recorded: less conditioned fear
same,pain sensitivity,"[1]; given CNO, both Tac2-Cre groups",equivalent levels
"CC(=O)N(C)C1(c2ccccc2)CCN(CCC[C@]2(c3ccc(Cl)c(Cl)c3)CCCN(C(=O)c3ccccc3)C2)CC1 [osanetant, (R)-N-{{3-[1-Benzoyl-3-(3,4-dichlorophenyl)piperidin-3-yl]prop-1-yl}-4-phenylpiperidin-4-yl}-N-methylacetamine]",fear acquisition,mice [2],does not affect fear acquisition
same,fear acquisition,mice [2]; listed as Osanetant,without affecting fear expression
same,"fear memory consolidation, freezing in the fear expression test",mice [2],impairs fear memory consolidation; also recorded: impairs fear learning
same,"fear memory consolidation, freezing in the fear expression test",mice [2]; listed as Osanetant,impairs cued-fear memory; also recorded: impairs fear memory consolidation
same,substance P-induced bronchial hyperreactivity,guinea-pigs,prevents
same,Adcyap1r1 (PAC1 receptor) mRNA levels in the amygdala,[3],impaired the enhancement of mRNA levels
same,Adcyap1r1 (PAC1 receptor) mRNA levels in the amygdala,[3]; listed as Osanetant,normalizes the levels; also recorded: prevented the up-regulation
same,"anxiety-like behavior in the elevated plus maze (time in open arms, entries in open arms, time in closed arms)",mice [4],no effects
same,"anxiety-like behavior in the elevated plus maze (time in open arms, entries in open arms, time in closed arms)",mice [4]; listed as Osanetant,no changes; also recorded: did not modified anxiety-like behavior
same,Nk3R mRNA levels,Nk3R,dose-dependent enhanced Nk3R mRNA levels; also recorded: enhances Nk3R mRNA levels; also recorded: increases Nk3R mRNA levels
same,electric shock reactivity,mice [5],no effects; also recorded: Equivalent shock reactivity
same,electric shock reactivity,mice [5]; listed as Osanetant,no changes
same,"anxiety-like behavior, time in the center of the open field",mice [6],no effects
same,"locomotor activity, distance travelled in the open field",mice [6],no effects; also recorded: equivalent distance travelled
same,"anxiety-like behavior, time in the center of the open field",mice [6]; listed as Osanetant,no changes; also recorded: did not modified anxiety-like behavior
same,"locomotor activity, distance travelled in the open field",mice [6]; listed as Osanetant,no changes
same,enhanced fear memory consolidation caused by CeA-Tac2 overexpression,mice [7]; LV-Tac2 mice,reversed; also recorded: impairs this effect
same,fear memory consolidation,"mice [7]; control LV-GFP mice, vs LV-GFP-Veh",impaired fear memory consolidation
same,"fear memory consolidation, freezing in the cued-fear expression test",CeA-NK3R,impaired fear memory consolidation
same,"fear memory consolidation, freezing in the fear expression test",IMO treated mice,impaired memory consolidation
same,"fear memory consolidation, freezing in the fear expression test",IMO treated mice; listed as Osanetant,impaired fear memory consolidation

# — patent US11672790B2, “Methods of managing conditioned fear with neurokinin receptor antagonists” (Emory University, priority 2014, dated 2023)
